Reference: patent US20080031986A1 (Metaproteomics, LLC, priority 2005, published 2008)

Assays:
[1] = system: 3T3-L1 adipocytes; test: Lipogenesis (Oil Red O / BODIPY) in 3T3-L1 adipocytes; format: cell-based, murine; details: for adipogenic response versus positive controls indomethacin and troglitazone: Day 0 to D6/7
Method: Prior to experiments, cells were cultured in DMEM containing 10% FBS-HI added 50 units penicillin/ml and 50 μg streptomycin/ml, and maintained in log phase prior to experimental setup. Cells were grown in a 5% CO2 humidified incubator at 37° C. Components of the pre-confluent medium included (1) 10% FBS/DMEM containing 4.5 g glucose/L; (2) 50 U/ml penicillin; and (3) 50 μg/ml streptomycin. Growth medium was made by adding 50 ml of heat inactivated FBS and 5 ml of penicillin/streptomycin to 500 ml DMEM. This medium was stored at 4° C. Before use, the medium was warmed to 37° C. in a water bath.
3T3-T1 cells were seeded at an initial density of 6×10^4 cells/cm^2 in 24-well plates. For two days, the cells were allowed grow to reach confluence. Following confluence, the cells were forced to differentiate into adipocytes by the addition of differentiation medium; this medium consisted of (1) 10% FBS/DMEM (high glucose); (2) 0.5 mM methylisobutylxanthine; (3) 0.5 μM dexamethasone and (4) 10 μg/ml insulin (MDI medium). After three days, the medium was changed to post-differentiation medium consisting of 10 μg/ml insulin in 10% FBS/DMEM.
Whenever fresh media were added, fresh test material was also added.
Monolayer cells were washed with PBS (phosphate buffered saline, Mediatech) and fixed with 10% formaldehyde for ten minutes. Fixed cells were stained with an Oil Red O working solution of three parts 0.6% Oil Red O/isopropanol stock solution and two parts water for one hour and the excess stain was washed once with water. The resulting stained oil droplets were extracted from the cells with isopropanol and quantified by spectrophotometric analysis at 540 nm (MEL312e BIO-KINETICS READER, Bio-Tek Instruments, Winooski, Vt.).
Briefly, media were removed and cells were washed once with non-sterile PBS. A stock 1000× BODIPY/DMSO solution was made by dissolving 1 mg BODIPY in 1 ml DMSO (1,000 μg BODIPY/ml). A working BODIPY solution was then made by adding 10 μl of the stock solution to 990 μl PBS for a final BODIPY concentration in the working solution of 0.01 μg/μl. One-hundred μl of this working solution (1 μg BODIPY) was added to each well of a 96-well microtiter plate. After 15 min on an orbital shaker (DS-500, VWR Scientific Products, South Plainfield, N.J.) at ambient temperature, the cells were washed with 100 μl PBS followed by the addition of 100 μl PBS for reading for spectrofluorometric determination of BODIPY incorporation into the cells. […]
Test materials were added in dimethyl sulfoxide at Day 0 of differentiation and every two days throughout the maturation phase (Day 6/7). […] Differentiated 3T3-L1 cells were stained with 0.2% Oil Red O. The resulting stained oil droplets were dissolved with isopropanol and quantified by spectrophotometric analysis at 530 nm.

[2] = system: TNFα-treated 3T3-L1 adipocytes; test: Adiponectin secretion from TNFα-treated 3T3-L1 adipocytes; format: cell-based, murine; details: for maximum increase of adiponectin secretion over TNFα solvent control: 10 ng TNFα/ml
Method: 3T3-L1 cells were seeded at an initial density of 1×10^4 cells/cm^2 in 96-well plates. For two days, the cells were allowed grow to reach confluence. Following confluence, the cells were forced to differentiate into adipocytes by the addition of differentiation medium; this medium consisted of (1) 10% FBS/DMEM (high glucose); (2) 0.5 mM methylisobutylxanthine; (3) 0.5 μM dexamethasone and (4) 10 μg/ml insulin (MDI medium). From Day 3 through Day 5, the medium was changed to post-differentiation medium consisting of 10% FBS in DMEM. […] On Day 6, the supernatant medium was sampled for adiponectin determination.
Statistical Calculations and Interpretation—All assays were preformed in duplicate. […] Differences among the doses and test agents were determined using the Student's t-test without correction for multiple comparisons; the nominal five percent probability of a type I error was selected.

[3] = system: db/db mice; test: Non-fasting serum glucose and insulin in db/db diabetic mice; format: in vivo, mouse; details: three daily doses by gavage
Method: The Model—Male, C57BLKS/J m^+/m^+Lepr^db (db/db) mice were used to assess the potential of the test materials to reduce fasting serum glucose or insulin concentrations.
Testing Procedure—Test substances were administered daily by gavage in 0.2% Tween-80. Serum was collected from the retroorbital sinus before the initial dose and ninety minutes after the third and final dose. Non-fasting serum glucose was determined enzymatically by the mutarotase/glucose oxidase method and serum insulin was determined by a mouse specific ELISA.

[4] = system: insulin-resistant 3T3-L1 adipocytes; test: Adiponectin secretion from insulin-resistant 3T3-L1 adipocytes; format: cell-based, murine; details: slope of Hofstee plot
Method: 3T3-L1 cells were seeded at an initial density of 1×10^4 cells/cm^2 in 96-well plates. For two days, the cells were allowed grow to reach confluence. Following confluence, the cells were forced to differentiate into adipocytes by the addition of differentiation medium; this medium consisted of (1) 10% FBS/DMEM (high glucose); (2) 0.5 mM methylisobutylxanthine; (3) 0.5 μM dexamethasone and (4) 10 μg/ml insulin (MDI medium). From Day 3 through Day 5, the medium was changed to post-differentiation medium consisting of 10 μg/ml insulin in 10% FBS/DMEM.
Briefly, on Day 6, cells were maintained in serum-free media containing 0.5% bovine serum albumin (BSA) for three hours and then treated with 1 μg insulin/ml plus solvent or insulin plus test material. […] Twenty-four hours later, the supernatant medium was sampled for adiponectin determination.
Statistical Calculations and Interpretation—All assays were preformed in duplicate. […] Differences between the doses were determined using the student's t-test without correction for multiple comparisons; the nominal five percent probability of a type I error was selected.
Substituting {relative adiponectin secretion/[concentration]} for the independent variable v/[S] and {relative adiponectin secretion} for the dependant variable {v}, produced a relationship of the form y=mx+b. […]

[5] = system: COX-2; details: Warner et al. 1999; cited from earlier work
[6] = system: DBA/J mice; test: Collagen induced rheumatoid arthritis murine model; format: in vivo, mouse; details: 10 mg/kg, days 30-42

For Beta acids, the “adipogenic response versus positive controls indomethacin and troglitazone” value [1] was “comparable to indomethacin and troglitazone”.

In the case of `Cc1c(C)c2c(c(C)c1O)CCC(C)(COc1ccc(CC3SC(=O)NC3=O)cc1)O2` (centres unmarked) [Troglitazone, troglitazone], the “maximum increase of adiponectin secretion over TNFα solvent control” value [2] was 51%.

With `COc1cc(O)c(CC=C(C)C)c(O)c1C(=O)/C=C/c1ccc(O)cc1` [Xanthohumol, xanthohumol] the “adipogenic response versus positive controls indomethacin and troglitazone” value [1] was “comparable to indomethacin and troglitazone” and the “serum glucose or insulin” value [3] was “reduction in serum glucose with no effect on insulin”.

For `CC(C)CCC1=C(O)C(C(=O)C(C)C)=C(O)C(CCC(C)C)(CCC(C)C)C1=O` [Hexahydro colupulone, hexahydrocolupulone], the “adipogenic response versus positive controls indomethacin and troglitazone” value [1] was “failed to elicit a lipogenic response greater than the solvent controls” and the “Test Material at Half Maximal Secretion” value [4] was 3.2 µg/mL.

With `CN(C)C(=N)N=C(N)N` [metformin, reference compound] the “lipogenic response / lipogenic index relative to solvent control” value ([1]; Oil Red O, Acacia samples 50 μg/ml) was 0.79.

For `CCc1ccc(CCOc2ccc(CC3SC(=O)NC3=O)cc2)nc1` (centres unmarked) [Pioglitazone, pioglitazone], the “maximum increase of adiponectin secretion over TNFα solvent control” value [2] was 80% and the “Adiponectin Index, Observed” value ([2]; 1.0 μg/ml, indexed to TNFα control (Table 26)) was 1.80.

In the case of `CC(=O)Oc1ccccc1C(=O)O` [Aspirin, aspirin], the “published values for direct COX-2 inhibition” value [5] is given as 1.4 to 50 µg/mL.

In the case of `C[C@]12C=CC(=O)C=C1CC[C@@H]1[C@@H]2[C@@H](O)C[C@@]2(C)[C@H]1CC[C@]2(O)C(=O)CO` [prednisolone], the arthritic index [6] was “Significant reductions”.
